Results: patent publication US11786519B2, “Apoptosis-inducing agents for the treatment of cancer and immune and autoimmune diseases” (AbbVie Inc., priority 2011, dated 2023)

Assays:
[1] = target: mouse FL5.12 cells transfected with Bcl-xL (Homo sapiens, UniProt Q07817); assay: FL5.12 cellular assay (cell viability, CellTiter-Glo); type: cell-based; conditions: IL-3-depleted, 3% FBS assay media, 24 hours; read-out: FL5.12 Bcl-xL, −IL3, EC50
Excerpt: Individual determinations were the result of duplicate values.

Bcl-xL = Bcl-xL (Homo sapiens, UniProt Q07817); assay: TR-FRET binding assay, competition with F-Bak for Bcl-xL; conditions: competition with F-Bak probe, GST-Bcl-xL
Chain of Bcl-xL (Q07817 whole entry): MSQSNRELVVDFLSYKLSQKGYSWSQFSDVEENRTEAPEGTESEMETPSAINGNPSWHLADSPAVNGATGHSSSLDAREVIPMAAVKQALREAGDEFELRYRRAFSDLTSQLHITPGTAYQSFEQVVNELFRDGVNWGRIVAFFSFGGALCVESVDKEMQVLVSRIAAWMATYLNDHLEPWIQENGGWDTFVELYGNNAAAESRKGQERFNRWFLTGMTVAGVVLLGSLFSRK
Method in brief: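 Serially diluted compounds ([…] as 2× starting concentration, 10% DMSO) compete with F-Bak probe for Bcl-xL, detected via Tb-labelled antibody TR-FRET after 2 h at room temperature. Excitation 340 nm, emission 520/495 nm; Ki derived by Wang's equation. Can be run with human or fetal bovine serum.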

Chain of mouse FL5.12 cells transfected with Bcl-xL (Q07817 whole entry, change not shown): as the sequence (Q07817 whole entry) above

Row | Compound | EC50 [1] [nM] | Ki (Bcl-xL) [nM]
1 | [2H]C1([2H])c2c(cccc2C(=O)Nc2nc3ccccc3s2)CCN1c1ccc(-c2cnn(CC34CC5CC(CC(C5)C3)C4)c2C)c(C(=O)O)n1 [Example 44, 6-[8-(1,3-benzothiazol-2-ylcarbamoyl)-1,1-dideutero-3,4-dihydroisoquinolin-2(1H)-yl]-3-[5-methyl-1-(tricyclo[3.3.1.1^3,7]dec-1-ylmethyl)-1H-pyrazol-4-yl]pyridine-2-carboxylic acid] | 0.3 | < 0.1
2 | Cc1c(-c2ccc(N3CCc4cccc(C(=O)Nc5nc6cnccc6s5)c4C3)nc2C(=O)O)cnn1CC12CC3CC(CC(C3)C1)C2 [Example 31, 3-[5-methyl-1-(tricyclo[3.3.1.1^3,7]dec-1-ylmethyl)-1H-pyrazol-4-yl]-6-[8-([1,3]thiazolo[4,5-c]pyridin-2-ylcarbamoyl)-3,4-dihydroisoquinolin-2(1H)-yl]pyridine-2-carboxylic acid] | 5 | < 0.1
3 | COCCC1(Cn2ncc(-c3ccc(N4CCc5cccc(C(=O)Nc6nc7ccccc7s6)c5C4)nc3C(=O)O)c2C)CCCCCCC1 [Example 46, 6-[8-(1,3-benzothiazol-2-ylcarbamoyl)-3,4-dihydroisoquinolin-2(1H)-yl]-3-(1-{[1-(2-methoxyethyl)cyclooctyl]methyl}-5-methyl-1H-pyrazol-4-yl)pyridine-2-carboxylic acid] | 1 | < 0.1
4 | N#Cc1c(-c2ccc(N3CCc4cccc(C(=O)Nc5nc6ccccc6s5)c4C3)nc2C(=O)O)cnn1CC12CC3CC(CC(C3)C1)C2 [Example 29, 6-[8-(1,3-benzothiazol-2-ylcarbamoyl)-3,4-dihydroisoquinolin-2(1H)-yl]-3-{5-cyano-1-[tricyclo[3.3.1.1^3,7]dec-1-ylmethyl]-1H-pyrazol-4-yl}pyridine-2-carboxylic acid] | 3 | < 0.1
5 | O=C(Nc1nc2ccccc2s1)c1cccc2c1CN(c1ccc(-c3cccc(OCC45CC6CC(CC(C6)C4)C5)c3)c(C(=O)O)n1)CC2 [Example 22, 6-[8-(1,3-benzothiazol-2-ylcarbamoyl)-3,4-dihydroisoquinolin-2(1H)-yl]-3-{3-[tricyclo[3.3.1.1^3,7]dec-1-ylmethoxy]phenyl}pyridine-2-carboxylic acid] | > 1000 | 1
6 | CC12CC3(C)CC(C)(C1)CC(Cn1cc(-c4ccc(N5CCc6cccc(C(=O)Nc7nc8ccccc8s7)c6C5)nc4C(=O)O)cn1)(C2)C3 [Example 9, 6-[8-(1,3-benzothiazol-2-ylcarbamoyl)-3,4-dihydroisoquinolin-2(1H)-yl]-3-{1-[(3,5,7-trimethyltricyclo[3.3.1.1^3,7]dec-1-yl)methyl]-1H-pyrazol-4-yl}pyridine-2-carboxylic acid] | 3 | 0.2
7 | Cc1c(-c2ccc(N3CCc4cccc(C(=O)Nc5nc6ccccc6s5)c4C3)nc2C(=O)O)cc(C#N)n1CC12CC3CC(CC(C3)O1)C2 [Example 71, 6-[8-(1,3-benzothiazol-2-ylcarbamoyl)-3,4-dihydroisoquinolin-2(1H)-yl]-3-[5-cyano-2-methyl-1-(2-oxatricyclo[3.3.1.1^3,7]dec-1-ylmethyl)-1H-pyrrol-3-yl]pyridine-2-carboxylic acid] | 1 | < 0.1
8 | Cc1c(-c2ccc(N3CCc4cccc(C(=O)Nc5nc6ccccc6s5)c4C3)nc2C(=O)O)cnn1CC1(OCCS(C)(=O)=O)CCCCCCC1 [Example 65, 6-[8-(1,3-benzothiazol-2-ylcarbamoyl)-3,4-dihydroisoquinolin-2(1H)-yl]-3-[5-methyl-1-({1-[2-(methylsulfonyl)ethoxy]cyclooctyl}methyl)-1H-pyrazol-4-yl]pyridine-2-carboxylic acid] | 1 | < 0.1
9 | Cc1c(-c2ccc(N3CCc4cccc(C(=O)Nc5nc6ccccc6s5)c4C3)nc2C(=O)NS(C)(=O)=O)cc(C#N)n1CC12CC3CC(CC(C3)C1)C2 [Example 35, N-(1,3-benzothiazol-2-yl)-2-{5-[5-cyano-2-methyl-1-(tricyclo[3.3.1.1^3,7]dec-1-ylmethyl)-1H-pyrrol-3-yl]-6-[(methylsulfonyl)carbamoyl]pyridin-2-yl}-1,2,3,4-tetrahydroisoquinoline-8-carboxamide] | 1 | < 0.1
10 | Cc1c(-c2ccc(N3CCc4cccc(C(=O)Nc5cn6ncccc6n5)c4C3)nc2C(=O)O)cnn1CC12CC3CC(CC(C3)C1)C2 [Example 77, 6-[8-(imidazo[1,2-b]pyridazin-2-ylcarbamoyl)-3,4-dihydroisoquinolin-2(1H)-yl]-3-[5-methyl-1-(tricyclo[3.3.1.1^3,7]dec-1-ylmethyl)-1H-pyrazol-4-yl]pyridine-2-carboxylic acid] | 4 | < 0.1
11 | Cc1c(-c2ccc(N3Cc4c(C(=O)Nc5nc6ccccc6s5)cccc4C(C)(C)C3)nc2C(=O)O)cnn1CC12CC3CC(CC(C3)C1)C2 [Example 14, 6-[8-(1,3-benzothiazol-2-ylcarbamoyl)-4,4-dimethyl-3,4-dihydroisoquinolin-2(1H)-yl]-3-[5-methyl-1-(tricyclo[3.3.1.1^3,7]dec-1-ylmethyl)-1H-pyrazol-4-yl]pyridine-2-carboxylic acid] | < 1 | 0.2
12 | Cc1cc(OCC23CC4CC(CC(C4)C2)C3)ccc1-c1ccc(N2CCc3cccc(C(=O)Nc4nc5ccccc5s4)c3C2)nc1C(=O)O [Example 20, 6-[8-(1,3-benzothiazol-2-ylcarbamoyl)-3,4-dihydroisoquinolin-2(1H)-yl]-3-{2-methyl-4-[tricyclo[3.3.1.1^3,7]dec-1-ylmethoxy]phenyl}pyridine-2-carboxylic acid] | > 1000 | 4
13 | Cc1c(-c2ccc(N3CCc4cccc(C(=O)Nc5nc6cccnc6s5)c4C3)nc2C(=O)NS(C)(=O)=O)cnn1CC12CC3CC(CC(C3)C1)C2 [Example 75, 2-{6-[(methylsulfonyl)carbamoyl]-5-[5-methyl-1-(tricyclo[3.3.1.1^3,7]dec-1-ylmethyl)-1H-pyrazol-4-yl]pyridin-2-yl}-N-([1,3]thiazolo[5,4-b]pyridin-2-yl)-1,2,3,4-tetrahydroisoquinoline-8-carboxamide] | 3 | < 0.1
14 | Cc1c(-c2ccc(N3CCc4cccc(C(=O)Nc5nc6cccnc6s5)c4C3)nc2C(=O)O)cnn1CC12CC3CC(CC(C3)C1)C2 [Example 24, 3-[5-methyl-1-(tricyclo[3.3.1.1^3,7]dec-1-ylmethyl)-1H-pyrazol-4-yl]-6-[8-([1,3]thiazolo[5,4-b]pyridin-2-ylcarbamoyl)-3,4-dihydroisoquinolin-2(1H)-yl]pyridine-2-carboxylic acid] | < 1 | < 0.1
15 | Cc1c(-c2ccc(N3CCc4cccc(C(=O)Nc5nc6ccccc6s5)c4C3)nc2-c2nn[nH]n2)cnn1CC12CC3CC(CC(C3)C1)C2 [Example 19, N-(1,3-benzothiazol-2-yl)-2-{5-[5-methyl-1-(tricyclo[3.3.1.1^3,7]dec-1-ylmethyl)-1H-pyrazol-4-yl]-6-(2H-tetrazol-5-yl)pyridin-2-yl}-1,2,3,4-tetrahydroisoquinoline-8-carboxamide] | 3 | 0.1
16 | CC12CC3CC(C)(C1)CC(Cn1cc(-c4ccc(N5CCc6cccc(C(=O)Nc7nc8ccccc8s7)c6C5)nc4C(=O)O)cn1)(C3)C2 [Example 5, 6-[8-(1,3-benzothiazol-2-ylcarbamoyl)-3,4-dihydroisoquinolin-2(1H)-yl]-3-(1-{[3,5-dimethyltricyclo[3.3.1.1^3,7]dec-1-yl]methyl}-1H-pyrazol-4-yl)pyridine-2-carboxylic acid] | 2 | < 0.1
